Reference: patent US20260284018A1, “DUAL INHIBITORS OF DYRK1A AND 5-HT2 FOR TREATING A BRAIN DISORDER” (THE REGENTS OF THE UNIVERSITY OF CALIFORNIA, priority 2023, published 2026)

Legend:
Assay in all cases: KINOMEscan scanEDGE
Assay type in all cases: binding
Conditions in all cases: read-out: Percent Control
[1] = target: T1, JNK1 (Homo sapiens, UniProt P45983)
T1 construct: purchased Eurofins DiscoverX
Method: (§1) Kinome Scan. Compound HTW_A_8 fumarate was screened against 97 kinases at a single concentration of 10 μM at Eurofins DiscoverX using their KINOMEscan™ scanEDGE assay. The results are reported as the % activity relative to DMSO control, where lower values indicate higher affinity. See Table 1 for the full kinome profile.

[2] = target: T2, PAK2 (Homo sapiens, UniProt Q13177)
T2 construct: purchased Eurofins DiscoverX (KINOMEscan scanEDGE service)
Method: as §1

[3] = target: T3, JNK3 (Homo sapiens, UniProt P53779)
T3 construct: purchased Eurofins DiscoverX
Method: as §1

[4] = target: T4, PLK1 (Homo sapiens, UniProt P53350)
T4 construct: purchased Eurofins DiscoverX KINOMEscan scanEDGE
Method: as §1

[5] = target: T5, BMPR2 (Homo sapiens, UniProt Q13873)
T5 construct: purchased Eurofins DiscoverX
Method: as §1

[6] = target: T6, ZAP70 (Homo sapiens, UniProt P43403)
T6 construct: purchased Eurofins DiscoverX KINOMEscan scanEDGE
Method: as §1

[7] = target: T7, KIT(V559D, T670I) (Homo sapiens, UniProt P10721, T670I/V559D)
T7 construct: purchased Eurofins DiscoverX
Method: as §1

[8] = target: T8, PIK3CA (Homo sapiens, UniProt P42336)
T8 construct: purchased Eurofins DiscoverX (KINOMEscan scanEDGE service)
Method: as §1

[9] = target: T9, PAK1 (Homo sapiens, UniProt Q13153)
T9 construct: purchased Eurofins DiscoverX (KINOMEscan scanEDGE service)
Method: as §1

[10] = target: T10, CDK3 (Homo sapiens, UniProt Q00526)
T10 construct: purchased Eurofins DiscoverX
Method: as §1

[11] = target: T11, CHEK1 (Homo sapiens, UniProt O14757)
T11 construct: purchased Eurofins DiscoverX
Method: as §1

[12] = target: T12, TIE2 (Homo sapiens, UniProt Q02763)
T12 construct: purchased Eurofins DiscoverX KINOMEscan scanEDGE
Method: as §1

[13] = target: T13, PIK3CG (Homo sapiens, UniProt P48736)
T13 construct: purchased Eurofins DiscoverX (KINOMEscan scanEDGE service)
Method: as §1

[14] = target: T14, ROCK2 (Homo sapiens, UniProt O75116)
T14 construct: purchased Eurofins DiscoverX KINOMEscan scanEDGE
Method: as §1

[15] = target: T15, RAF1 (Homo sapiens, UniProt P04049)
T15 construct: purchased Eurofins DiscoverX KINOMEscan scanEDGE
Method: as §1

[16] = target: T16, PRKCE (Homo sapiens, UniProt Q02156)
T16 construct: purchased Eurofins DiscoverX KINOMEscan scanEDGE
Method: as §1

[17] = target: T17, ULK2 (Homo sapiens, UniProt Q8IYT8)
T17 construct: purchased Eurofins DiscoverX KINOMEscan scanEDGE
Method: as §1

[18] = target: T18, KIT(D816V) (Homo sapiens, UniProt P10721, D816V)
T18 construct: purchased Eurofins DiscoverX
Method: as §1

[19] = target: T19, BRAF (Homo sapiens, UniProt P15056)
T19 construct: purchased Eurofins DiscoverX
Method: as §1

[20] = target: T20, JAK2(JH1domain-catalytic) (Homo sapiens, UniProt O60674)
T20 construct: JAK2(JH1domain-catalytic); purchased Eurofins DiscoverX
Method: as §1

[21] = target: T21, ADCK3 (Homo sapiens, UniProt Q8NI60)
T21 construct: purchased Eurofins DiscoverX
Method: as §1

[22] = target: T22, JNK2 (Homo sapiens, UniProt P45984)
T22 construct: purchased Eurofins DiscoverX
Method: as §1

[23] = target: T23, ABL1(T315I)-phosphorylated (Homo sapiens, UniProt P00519, T315I)
T23 construct: purchased Eurofins DiscoverX
Method: as §1

[24] = target: T24, SRPK3 (Homo sapiens, UniProt Q9UPE1)
T24 construct: purchased Eurofins DiscoverX KINOMEscan scanEDGE
Method: as §1

[25] = target: T25, FGFR2 (Homo sapiens, UniProt P21802)
T25 construct: purchased Eurofins DiscoverX
Method: as §1

[26] = target: T26, p38-beta (Homo sapiens, UniProt Q15759)
T26 construct: purchased Eurofins DiscoverX (KINOMEscan scanEDGE service)
Method: as §1

[27] = target: T27, ACVR1B (Homo sapiens, UniProt P36896)
T27 construct: purchased Eurofins DiscoverX
Method: as §1

[28] = target: T28, PKAC-alpha (Homo sapiens, UniProt P17612)
T28 construct: purchased Eurofins DiscoverX KINOMEscan scanEDGE
Method: as §1

[29] = target: T29, AXL (Homo sapiens, UniProt P30530)
T29 construct: purchased Eurofins DiscoverX
Method: as §1

[30] = target: T30, MARK3 (Homo sapiens, UniProt P27448)
T30 construct: purchased Eurofins DiscoverX (KINOMEscan scanEDGE service)
Method: as §1

[31] = target: T31, SNARK (Homo sapiens, UniProt Q9H093)
T31 construct: purchased Eurofins DiscoverX KINOMEscan scanEDGE
Method: as §1

[32] = target: T32, EGFR (Homo sapiens, UniProt P00533)
T32 construct: purchased Eurofins DiscoverX
Method: as §1

[33] = target: T33, CDK9 (Homo sapiens, UniProt P50750)
T33 construct: purchased Eurofins DiscoverX
Method: as §1

[34] = target: T34, SRC (Homo sapiens, UniProt P12931)
T34 construct: purchased Eurofins DiscoverX KINOMEscan scanEDGE
Method: as §1

[35] = target: T35, VEGFR2 (Homo sapiens, UniProt P35968)
T35 construct: purchased Eurofins DiscoverX KINOMEscan scanEDGE
Method: as §1

[36] = target: T36, PIM3 (Homo sapiens, UniProt Q86V86)
T36 construct: purchased Eurofins DiscoverX (KINOMEscan scanEDGE service)
Method: as §1

[37] = target: T37, IGF1R (Homo sapiens, UniProt P08069)
T37 construct: purchased Eurofins DiscoverX
Method: as §1

[38] = target: T38, MET (Homo sapiens, UniProt P08581)
T38 construct: purchased Eurofins DiscoverX (KINOMEscan scanEDGE service)
Method: as §1

[39] = target: T39, GSK3B (Homo sapiens, UniProt P49841)
T39 construct: purchased Eurofins DiscoverX
Method: as §1

T19 sequence (P15056 whole entry): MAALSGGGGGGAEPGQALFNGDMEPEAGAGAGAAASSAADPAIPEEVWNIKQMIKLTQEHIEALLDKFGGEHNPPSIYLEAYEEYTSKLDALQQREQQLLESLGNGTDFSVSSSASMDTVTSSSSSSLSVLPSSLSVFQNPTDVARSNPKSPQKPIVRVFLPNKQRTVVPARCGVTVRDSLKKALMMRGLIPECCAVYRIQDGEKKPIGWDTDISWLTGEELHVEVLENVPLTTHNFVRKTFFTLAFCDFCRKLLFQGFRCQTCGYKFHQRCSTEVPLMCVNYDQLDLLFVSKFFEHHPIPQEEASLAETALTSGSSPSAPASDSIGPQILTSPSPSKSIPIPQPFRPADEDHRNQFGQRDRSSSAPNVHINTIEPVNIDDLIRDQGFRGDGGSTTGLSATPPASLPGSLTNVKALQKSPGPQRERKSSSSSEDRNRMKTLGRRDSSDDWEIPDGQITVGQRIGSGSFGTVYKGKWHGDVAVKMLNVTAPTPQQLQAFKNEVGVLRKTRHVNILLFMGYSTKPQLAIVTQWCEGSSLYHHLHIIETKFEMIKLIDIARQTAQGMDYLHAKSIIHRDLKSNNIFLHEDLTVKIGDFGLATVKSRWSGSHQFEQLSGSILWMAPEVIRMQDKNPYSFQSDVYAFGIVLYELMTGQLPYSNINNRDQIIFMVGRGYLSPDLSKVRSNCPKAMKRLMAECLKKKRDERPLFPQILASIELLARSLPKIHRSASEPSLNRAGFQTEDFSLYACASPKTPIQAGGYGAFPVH
T4 sequence (P53350 whole entry): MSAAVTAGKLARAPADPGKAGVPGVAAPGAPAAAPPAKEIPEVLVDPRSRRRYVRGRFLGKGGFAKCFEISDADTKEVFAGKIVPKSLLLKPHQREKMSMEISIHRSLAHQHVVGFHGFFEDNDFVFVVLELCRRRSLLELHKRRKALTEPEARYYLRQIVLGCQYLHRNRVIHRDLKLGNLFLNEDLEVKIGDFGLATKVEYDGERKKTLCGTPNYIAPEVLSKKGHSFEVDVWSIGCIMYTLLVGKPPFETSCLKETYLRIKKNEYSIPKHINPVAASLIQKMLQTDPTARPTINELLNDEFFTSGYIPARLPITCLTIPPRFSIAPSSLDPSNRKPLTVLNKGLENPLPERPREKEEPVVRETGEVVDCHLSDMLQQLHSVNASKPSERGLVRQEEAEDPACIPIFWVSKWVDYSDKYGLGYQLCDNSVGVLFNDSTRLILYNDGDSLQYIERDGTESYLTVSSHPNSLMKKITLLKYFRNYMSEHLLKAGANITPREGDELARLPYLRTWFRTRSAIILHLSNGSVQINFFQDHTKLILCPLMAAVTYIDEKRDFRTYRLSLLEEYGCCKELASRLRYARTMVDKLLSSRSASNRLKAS
T13 sequence (P48736 whole entry): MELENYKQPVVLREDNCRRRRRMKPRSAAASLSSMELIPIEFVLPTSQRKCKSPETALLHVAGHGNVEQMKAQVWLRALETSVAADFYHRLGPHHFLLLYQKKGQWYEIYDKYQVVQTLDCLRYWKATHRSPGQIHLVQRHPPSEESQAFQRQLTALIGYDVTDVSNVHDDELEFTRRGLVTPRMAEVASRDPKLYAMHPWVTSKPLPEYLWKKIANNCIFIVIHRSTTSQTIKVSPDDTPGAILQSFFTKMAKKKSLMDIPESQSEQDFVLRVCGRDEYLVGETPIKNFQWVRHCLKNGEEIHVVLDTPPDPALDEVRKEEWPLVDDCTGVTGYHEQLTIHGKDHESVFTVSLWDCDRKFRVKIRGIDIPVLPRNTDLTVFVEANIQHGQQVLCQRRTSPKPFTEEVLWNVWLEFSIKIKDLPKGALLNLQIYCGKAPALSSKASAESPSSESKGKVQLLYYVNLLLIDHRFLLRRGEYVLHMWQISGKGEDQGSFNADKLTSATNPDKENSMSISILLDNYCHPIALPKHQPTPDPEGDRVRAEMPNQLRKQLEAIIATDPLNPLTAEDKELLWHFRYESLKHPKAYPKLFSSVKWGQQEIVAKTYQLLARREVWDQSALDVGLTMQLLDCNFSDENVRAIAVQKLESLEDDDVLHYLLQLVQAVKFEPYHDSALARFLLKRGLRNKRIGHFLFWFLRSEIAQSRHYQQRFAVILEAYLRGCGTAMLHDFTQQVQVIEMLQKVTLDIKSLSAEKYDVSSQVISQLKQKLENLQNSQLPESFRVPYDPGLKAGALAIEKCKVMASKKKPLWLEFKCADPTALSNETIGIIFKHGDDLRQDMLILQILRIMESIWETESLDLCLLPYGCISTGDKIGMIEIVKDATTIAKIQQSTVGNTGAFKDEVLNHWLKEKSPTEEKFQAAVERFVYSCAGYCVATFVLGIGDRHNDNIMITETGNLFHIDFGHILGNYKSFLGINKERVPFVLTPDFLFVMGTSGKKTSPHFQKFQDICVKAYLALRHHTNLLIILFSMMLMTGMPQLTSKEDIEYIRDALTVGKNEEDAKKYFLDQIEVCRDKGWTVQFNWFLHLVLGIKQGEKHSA
T10 sequence (Q00526 whole entry): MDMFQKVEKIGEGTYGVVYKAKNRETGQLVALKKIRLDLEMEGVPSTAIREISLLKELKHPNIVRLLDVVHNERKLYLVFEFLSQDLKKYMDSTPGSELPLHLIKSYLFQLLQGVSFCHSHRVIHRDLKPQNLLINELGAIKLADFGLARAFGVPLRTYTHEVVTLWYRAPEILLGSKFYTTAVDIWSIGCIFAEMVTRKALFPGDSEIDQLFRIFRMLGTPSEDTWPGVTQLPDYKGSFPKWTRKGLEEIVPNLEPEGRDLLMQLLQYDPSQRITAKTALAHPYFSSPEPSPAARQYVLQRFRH
T22 sequence (P45984 whole entry): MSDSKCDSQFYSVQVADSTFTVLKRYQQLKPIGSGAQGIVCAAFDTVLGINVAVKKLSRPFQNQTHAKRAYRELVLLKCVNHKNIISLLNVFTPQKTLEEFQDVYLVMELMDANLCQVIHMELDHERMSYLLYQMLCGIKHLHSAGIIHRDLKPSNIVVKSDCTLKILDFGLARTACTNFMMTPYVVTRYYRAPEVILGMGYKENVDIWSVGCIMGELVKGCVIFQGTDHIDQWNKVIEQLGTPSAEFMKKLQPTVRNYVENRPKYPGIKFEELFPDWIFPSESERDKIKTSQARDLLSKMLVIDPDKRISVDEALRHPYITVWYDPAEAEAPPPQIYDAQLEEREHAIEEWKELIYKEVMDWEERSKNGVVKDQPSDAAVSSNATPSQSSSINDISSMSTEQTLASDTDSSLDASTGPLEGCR
T29 sequence (P30530 26-894): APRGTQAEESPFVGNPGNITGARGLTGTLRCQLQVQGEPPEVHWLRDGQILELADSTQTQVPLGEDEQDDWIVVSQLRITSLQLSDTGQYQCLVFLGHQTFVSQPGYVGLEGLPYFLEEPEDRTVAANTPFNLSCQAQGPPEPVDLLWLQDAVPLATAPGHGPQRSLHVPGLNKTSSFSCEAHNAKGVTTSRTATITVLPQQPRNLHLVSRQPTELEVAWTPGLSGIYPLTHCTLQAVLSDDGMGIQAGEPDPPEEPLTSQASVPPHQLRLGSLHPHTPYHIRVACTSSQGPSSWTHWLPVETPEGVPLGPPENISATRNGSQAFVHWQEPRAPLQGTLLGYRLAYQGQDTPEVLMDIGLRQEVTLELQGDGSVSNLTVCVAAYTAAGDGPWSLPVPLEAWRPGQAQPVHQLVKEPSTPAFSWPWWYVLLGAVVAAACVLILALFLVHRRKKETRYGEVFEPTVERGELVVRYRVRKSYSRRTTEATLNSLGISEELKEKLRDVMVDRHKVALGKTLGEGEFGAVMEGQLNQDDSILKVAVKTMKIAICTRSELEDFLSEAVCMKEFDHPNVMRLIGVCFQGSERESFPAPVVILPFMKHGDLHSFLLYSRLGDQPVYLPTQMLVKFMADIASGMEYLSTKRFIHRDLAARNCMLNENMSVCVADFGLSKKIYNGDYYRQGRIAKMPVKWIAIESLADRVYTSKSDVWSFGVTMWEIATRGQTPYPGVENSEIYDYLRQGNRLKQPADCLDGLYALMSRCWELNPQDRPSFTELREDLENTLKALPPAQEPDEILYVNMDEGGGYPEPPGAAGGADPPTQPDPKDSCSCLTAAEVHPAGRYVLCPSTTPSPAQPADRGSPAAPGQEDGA
T30 sequence (P27448 whole entry): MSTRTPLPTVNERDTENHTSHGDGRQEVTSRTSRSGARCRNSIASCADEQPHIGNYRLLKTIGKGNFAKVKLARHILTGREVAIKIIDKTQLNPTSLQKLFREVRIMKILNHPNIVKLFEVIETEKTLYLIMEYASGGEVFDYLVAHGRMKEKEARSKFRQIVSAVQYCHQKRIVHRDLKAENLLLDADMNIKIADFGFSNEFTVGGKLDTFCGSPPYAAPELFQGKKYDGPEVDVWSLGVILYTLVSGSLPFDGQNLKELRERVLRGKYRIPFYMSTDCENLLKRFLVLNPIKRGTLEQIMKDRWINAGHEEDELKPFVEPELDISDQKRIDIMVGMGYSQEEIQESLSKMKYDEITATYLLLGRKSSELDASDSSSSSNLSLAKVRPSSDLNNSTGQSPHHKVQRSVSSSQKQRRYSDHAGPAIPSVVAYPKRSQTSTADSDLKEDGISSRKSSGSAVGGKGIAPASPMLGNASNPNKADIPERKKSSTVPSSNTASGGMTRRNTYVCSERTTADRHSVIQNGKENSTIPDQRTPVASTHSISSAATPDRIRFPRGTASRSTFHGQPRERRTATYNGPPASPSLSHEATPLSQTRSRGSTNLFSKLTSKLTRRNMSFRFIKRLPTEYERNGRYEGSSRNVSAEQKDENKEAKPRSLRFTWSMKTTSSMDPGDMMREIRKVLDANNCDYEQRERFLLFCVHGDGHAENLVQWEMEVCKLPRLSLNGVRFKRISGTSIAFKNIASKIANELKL

COc1ccc2c3ccnc(C)c3n(CCN(C)C)c2c1.O=C(O)/C=C/C(=O)O [HTW_A_8 fumarate, 2-(7-methoxy-1-methyl-9H-pyrido[3,4-b]indol-9-yl)-N,N-dimethylethan-1-amine Fumarate Salt (2:3)]
remaining binding at 10 µM [1]: 100% | remaining binding at 10 µM [2]: 96% | remaining binding at 10 µM [3]: 91% | remaining binding at 10 µM [4]: 100% | remaining binding at 10 µM [5]: 100% | remaining binding at 10 µM [6]: 93% | remaining binding at 10 µM [7]: 89% | remaining binding at 10 µM [8]: 100% | remaining binding at 10 µM [9]: 100% | remaining binding at 10 µM [10]: 91% | remaining binding at 10 µM [11]: 93% | remaining binding at 10 µM [12]: 99% | remaining binding at 10 µM [13]: 33% | remaining binding at 10 µM [14]: 73% | remaining binding at 10 µM [15]: 93% | remaining binding at 10 µM [16]: 100% | remaining binding at 10 µM [17]: 100% | remaining binding at 10 µM [18]: 100% | remaining binding at 10 µM [19]: 100% | remaining binding at 10 µM [20]: 100% | remaining binding at 10 µM [21]: 100% | remaining binding at 10 µM [22]: 81% | remaining binding at 10 µM [23]: 100% | remaining binding at 10 µM [24]: 81% | remaining binding at 10 µM [25]: 95% | remaining binding at 10 µM [26]: 98% | remaining binding at 10 µM [27]: 83% | remaining binding at 10 µM [28]: 97% | remaining binding at 10 µM [29]: 97% | remaining binding at 10 µM [30]: 100% | remaining binding at 10 µM [31]: 100% | remaining binding at 10 µM [32]: 84% | remaining binding at 10 µM [33]: 100% | remaining binding at 10 µM [34]: 99% | remaining binding at 10 µM [35]: 100% | remaining binding at 10 µM [36]: 96% | remaining binding at 10 µM [37]: 85% | remaining binding at 10 µM [38]: 100% | remaining binding at 10 µM [39]: 100%
